Data taken from PubChem BioAssay AID1259407 (Chemical Carcinogenesis Research Information System (CCRIS), 2018).
Activity calls are given as the source filed them. No rule for the calls is given here.

Tested on: CCRIS mutagenicity, Ames/micronucleus/aberration tests
Experiment: CCRIS mutagenicity studies

`O=Cc1cc(=O)[nH]c(=O)[nH]1` was tested, and the mutagenic call (Test System: CHINESE HAMSTER V-79, Strain/Indicator: V-79 (HPRT)/6-THIOGUANINE, Metabolic Activation: NONE, Method: STANDARD PLATE) was “active; positive”.
In the case of `O=C(/C=C/c1ccccc1)c1ccc([N+](=O)[O-])cc1`, the mutagenic call (Test System: AMES SALMONELLA TYPHIMURIUM, Strain/Indicator: TA100, Metabolic Activation: NONE, Method: STANDARD PLATE) is reported as “inactive; negative” and the mutagenic call (Test System: AMES SALMONELLA TYPHIMURIUM, Strain/Indicator: TA100, Metabolic Activation: RAT, LIVER, S-9, AROCLOR 1254, Method: STANDARD PLATE) is reported as “inactive; negative”.
For `O=C(O)/C=C/C=C/CO`, the mutagenic call (Test System: CHINESE HAMSTER V-79, Strain/Indicator: V-79 (HGPRT)/8-AZAGUANINE, Metabolic Activation: NONE) was “inactive; negative”.
In the case of `CC1=NCCc2c1[nH]c1cc(O)ccc21`, the mutagenic call (Test System: AMES SALMONELLA TYPHIMURIUM, Strain/Indicator: TA97, Metabolic Activation: NONE, Method: PREINCUBATION) is reported as “inactive; negative”, the mutagenic call (Test System: AMES SALMONELLA TYPHIMURIUM, Strain/Indicator: TA97, Metabolic Activation: RAT, LIVER, S-9, AROCLOR 1254, Method: PREINCUBATION) is reported as “inactive; negative” and the mutagenic call (Test System: AMES SALMONELLA TYPHIMURIUM, Strain/Indicator: TA98, Metabolic Activation: NONE, Method: PREINCUBATION) is reported as “inactive; negative”. The mutagenic call (Test System: AMES SALMONELLA TYPHIMURIUM, Strain/Indicator: TA98, Metabolic Activation: RAT, LIVER, S-9, AROCLOR 1254, Method: PREINCUBATION) was “inactive; negative”, the mutagenic call (Test System: AMES SALMONELLA TYPHIMURIUM, Strain/Indicator: TA100, Metabolic Activation: NONE, Method: PREINCUBATION) was “inactive; negative” and the mutagenic call (Test System: AMES SALMONELLA TYPHIMURIUM, Strain/Indicator: TA100, Metabolic Activation: RAT, LIVER, S-9, AROCLOR 1254, Method: PREINCUBATION) was “inactive; negative”. The mutagenic call (Test System: AMES SALMONELLA TYPHIMURIUM, Strain/Indicator: TA102, Metabolic Activation: NONE, Method: PREINCUBATION) was “inactive; negative” and the mutagenic call (Test System: AMES SALMONELLA TYPHIMURIUM, Strain/Indicator: TA102, Metabolic Activation: RAT, LIVER, S-9, AROCLOR 1254, Method: PREINCUBATION) was “inactive; negative”.
In the case of `Cc1cc2c3c(cccc3c1)-c1cc3ccccc3cc1-2`, the mutagenic call (Test System: AMES SALMONELLA TYPHIMURIUM, Strain/Indicator: TA100, Metabolic Activation: RAT, LIVER, S-9, AROCLOR 1254) is reported as “active; positive”.
